# Measured values as given in patent US6444656B1, “Antiviral phosphonate nucleotides” (BioChem Pharma, Inc., priority 1992, dated 2002).
# Assays:
# Type in all cases: cell-based
# [1] = Cytotoxicity (CC50) reported with the anti-HBV assay; settings: human; cytotoxicity of Table 2 (HBV assay, 2.2.15 cells)
# Protocol: (§1) The 2.2.15 cell line derived from HepG2 cells transfected with episomal HBV DNA (Sells et al (1987) Proc. Natl. Acad. Sci. USA 84:1005-1009 and (1988) J. Virol. 62:2836-2844) was used. The assay was performed basically as described by Ojwang et al. (1995) Antimicrobial Agents and Chemotherapy 39:2570-2573 ). The 2.2.15 cells are seeded (10^5 cells per well) in 300 ul of minimal essential medium supplemented with 10% fetal bovine serum, using 24-well plates pre-coated with 150 ul of 0.1 mg of collagen (rat tail) type I per ml reconstituted in 0.02 M acetic acid. The collagen treatment helped the cells 10 disperse evenly over the culture plate. Once the cells reach confluency (approximately 1 day), the culture medium is replaced every 2 days with medium containing various concentrations of the indicated test compound. In this experiment, the nucleosides 2′,3′-dideoxy-3′-thiacytidine (3TC) or 2′,3′-dideoxycytidine (ddC) are used as positive controls (Ojwang et al. (1995)). Twelve days postadministration of the test compounds, cells are harvested and DNA is prepared as described by Fennewald et al. ( (1995) Antiviral Res. 26:37-54.). At the same time, the culture medium is saved and analyzed for the presence of extracellular viral nucleic acids.
# HIV-1 = assay: Anti-HIV activity: inhibition of HIV-1 replication in infected established cell lines; settings: laboratory strains of HIV-1, established cell lines, 4 to 6 days post-infection
# Protocol: (§2) Laboratory strains of HIV-1, were used to infect established cell lines by using a specific multiplicity of infection (MOI) of the virus for 1 hour at 37° C. prior to washing the cells and re-suspension in medium containing increasing concentrations of drug (or test compound). At 4 to 6 days post-infection, drug-treated and control wells are analyzed for an HIV-1 induced cytopathic effect and/or for the presence of viral reverse transcriptase (RT) or viral p24 antigen in the culture medium (Buckheit and Swanstrom (1991) AIDS Res. Human Retroviruses 7:295-302; Ojwang, et al (1994) J. Acquired Immune Deficiency Syndrome 7:560-570; Ojwang, J. O., et al (1995) Antimicrobial Agents and Chemotherapy. 39:2426-2435 and Rando et al (1995) J. Biol. Chem. 270:1754-1760).
# established cell lines = assay: Cytotoxicity (CCTD50) reported with the anti-HIV-1 assay; settings: cytotoxicity Table 1 (HIV-1 assay)
# Protocol: as §2
# HBV = assay: Anti-HBV activity: inhibition of HBV replication in 2.2.15 cells; settings: twelve days postadministration
# Protocol: as §1
# The integrated and episomal HBV DNAs are easily separated by using agarose gel electrophoresis which allows for the differential quantification of the two species of HBV DNA. […] As a molecular probe, a subgenomic fragment of the HBV DNA is cloned into the pCRII TA cloning vector (Invitrogen) plasmid between the two EcoR1 sites. The subgenomic HBV DNA fragment is obtained by using the PCR technique to amplify a portion of the HBV genome (nucleotide positions 2134 to 143). Total DNA isolated from 2.2.15 cells is used as the PCR template with primer sets corresponding to nucleotide positions 2134 to 2151 (forward) and 143 to 126 (reverse). […] In addition, the filters are also exposed to a photoimaging plate and quantitated, using a Fujix Bioimaging Analyzer System BAS 1000 (or similar) instrument.
# [2] = system: 2.2.15 cell line derived from HepG2 cells; assay: Cytotoxicity (CC50) reported with the anti-HBV assay; settings: cytotoxicity of Table 2 (HBV assay, 2.2.15 cells)
# Protocol: as §1
Compound,CC50 [1],"EC50 (HIV-1; Human immunodeficiency virus 1, read-out: EC50 (μg/ml), inhibition of HIV-1 replication)",CCTD50 (established cell lines),"EC50 (HBV; Hepatitis B virus, read-out: EC50 (μg/ml), inhibition of HBV replication)",CC50 [2],"EC50 (μg/ml), inhibition of HIV-1 replication (HIV-1)","EC50 (μg/ml), inhibition of HBV replication (HBV)"
Nc1nc(O)c2ncn(C[C@H]3O[C@@H](P(=O)(O)O)C[C@@H]3F)c2n1 [Compound 23],> 300 mg/L,> 10 µg/mL,>10 µg/mL,> 30 µg/mL,,,
"Nc1nc2c(nc(Cl)n2CC2CCC(P(=O)(Oc3ccccc3)Oc3ccccc3)O2)c(=O)[nH]1 (stereo not drawn) [Example 16, [5-(2-Amino-8-chloro-6-oxo-1,6-dihydro-purin-9-ylmethyl)-tetrahydro-furan-2-yl]-phosphonic Acid Diphenyl Ester]",,,>10 µg/mL,,>300 mg/L,0.46 µg/mL,11 µg/mL
"Ammonium; 5-(2-Amino-6-oxo-1,6-dihydro-purin-9-ylmethyl)-3,4-dihydroxy-tetrahydro-furan-2-phosphonate [Example 10]",,,>10 µg/mL,,>300 mg/L,5 µg/mL,0.295 µg/mL
